From US20130197480A1, “METHODS AND SYSTEMS FOR DELIVERY OF LIVE CELLS” (PALOMAR MEDICAL TECHNOLOGIES, INC., priority 2012, published 2013)

Test system: Human fibroblast cells in culture
Assay: Common laser pre-treatment compounds incubated 45 min with cultured human fibroblasts, visual inspection
Settings: for Viability/Inspection 24 hrs / Viability/Inspector 1 week: cells rinsed, fresh media; for Viability/Inspection 24 hrs: observed 24 hours post exposure; for Viability/Inspector 1 week: observed one week post exposure; for Viability/nspection 45 min: visual inspection after 45 minutes incubation with compound
Method: AG07999 human skin fibroblasts (HSF; Coriell, Camden, N.J.) were grown to confluence in minimal essential media (MEM; Gibco, Grand Island, N.Y.) supplemented with 10% FBS (Hyclone, Logan, Utah), 20 mM L-glutamine, and 20 mM Glutamax™ (Gibco). Cells were maintained in an incubator at 37° C. and 5% CO2 and serially passaged with trypsin digestion at a 1:3 ratio as needed.
This example describes in vitro (in silico) testing of compounds added to human fibroblast cell cultures to determine any detrimental effects to the cells.
The remaining compositions and mixtures were tested as they are expected to be common treatments that might be used for numbing or cleansing of skin prior to laser treatment and cell delivery, or coagulation compounds, that are available in most physician offices. […] In addition, the delivery vehicle for SRF and lidocaine were tested to determine which vehicle (cream, lotion, petrolatum, lipoderm) was least destructive to the cells.

CNC[C@H](O)c1ccc(O)c(O)c1 [Epinephrine 1:10,000,000, Epinephrine]
Viability/Inspection 24 hrs: Normal | Viability/Inspector 1 week: Confluent/overgrown | Viability/nspection 45 min: Normal

CNC[C@H](O)c1ccc(O)c(O)c1 [Epinephrine 1:100,000, Epinephrine]
Viability/Inspection 24 hrs: Normal | Viability/Inspector 1 week: Confluent/overgrown | Viability/nspection 45 min: Slight change in morphology,

CCN(CC)CC(=O)Nc1c(C)cccc1C [Lidocaine 0.5%, Lidocaine]
Viability/Inspection 24 hrs: Normal | Viability/Inspector 1 week: Confluent/overgrown | Viability/nspection 45 min: Normal
